Results from patent US7645765B2, “Use of moxaverin for treating erectile dysfunction, forms of dementia or diseases associated to an arteriosclerotic occlusion” (Molecular and Clinical Drug Research, priority 2001, dated 2010).
Converted amounts (≈) assume the structure as drawn. Read-outs that look alike come from different tables or passages of the source.

Legend:
[1] = for pH: 26.6° C.
Procedure: Moxaverin hydrochloride was dissolved completely, as a pure substance, in increasing mass proportions (see Table 1), […], respectively (manufactured by Sigma, PEG 200 and 400, <1% H2O), while stirring constantly, […]

[2] = Solubility in water / aqueous solution; type: physicochemical
Procedure: Also, this low concentration of moxaverin would be difficult to compensate by means of the administration of larger volumes. In addition, the stability of active substances in highly concentrated solutions is generally greater than in solutions having a low concentration. In the form of the free base, moxaverin is practically insoluble in water (<1 mg/ml).

[3] = Solubility of moxaverin hydrochloride in undiluted PEG 200 / PEG 400 at 37° C., pH 7.4 adjustment and dilution with Tyrode's solution; type: physicochemical
Procedure: Moxaverin hydrochloride was dissolved completely, as a pure substance, in increasing mass proportions (see Table 1), in 10 ml commercially available polyethylene glycol having an average molecular weight of 200 and 400, respectively (manufactured by Sigma, PEG 200 and 400, <1% H2O), while stirring constantly, at a temperature of 37° C.
Subsequently, the dissolved moxaverin was converted to an aqueous solution, while stirring constantly, by adding 1×Tyrode's solution with a normal extracellular electrolyte composition.
To determine the pH dependence of the solution behavior of moxaverin hydrochloride, a pH of 7.4 was adjusted in another series of experiments, after complete dissolution in undiluted PEG, by adding NaOH.

[4] = cited from earlier work
[5] = Direct dissolving of moxaverin HCl in 5-10% diluted PEG; type: physicochemical; details: 5-10% PEG 400 or PEG 200 in H2O or Tyrode's solution, 37° C.
Procedure: In comparison, an attempt was made to dissolve moxaverin HCl in 5-10% PEG diluted with H2O and Tyrode's solution, respectively. (In other words, analogous to the series of experiments shown in the table, 15 to 40 mg moxaverin HCl were added to 10 ml 10% PEG 400, or 7.5 to 20 mg moxaverin HCl were added to 10 ml 5% PEG 400, and stirred at 37° C.) However, directly dissolving the pure substance in diluted PEG was not possible either in diluted PEG 400 or in diluted PEG 200.

[6] = Activity of moxaverin HCl dissolved in pH-neutral PEG solution; details: pH-neutral diluted PEG solution
[7] = system: patients having erectile dysfunction; experiment: Patient study: intracavernous injection of aqueous solutions of moxaverin; type: in vivo, human
Procedure: Twenty patients having a completely clarified genesis of erectile dysfunction were given intracavernous injections (injection therapy of erectile tissue) of aqueous solutions of moxaverin. In this connection, 1 ml of an injection solution containing 1 to 10 mg moxaverin hydrochloride per ml end volume, in Tyrode's buffer, at a pH=7.4 and an end concentration of 2.5% PEG 400 (in the case of 1 mg moxaverin HCl/ml) up to 25% PEG 400 (in the case of 10 mg moxaverin HCl/ml) were administered per individual injection.

smooth muscle cells = details: more effective than papaverin; cited from earlier work
[8] = Stability of pH-neutral aqueous PEG solutions of moxaverin; type: physicochemical
[9] = after oral administration; cited from earlier work
[10] = 150 mg in 10 ml PEG 200, 37° C.
[11] = 150 mg in 10 ml PEG 400, 37° C.
[12] = 200 mg in 10 ml PEG 200, 37° C.
[13] = 200 mg in 10 ml PEG 400, 37° C.
[14] = 250 mg in 10 ml PEG 200, 37° C.
[15] = 250 mg in 10 ml PEG 400, 37° C.
[16] = 300 mg in 10 ml PEG 200, 37° C.
[17] = 300 mg in 10 ml PEG 400, 37° C.
[18] = 350 mg in 10 ml PEG 200, 37° C.
[19] = 350 mg in 10 ml PEG 400, 37° C.
[20] = 400 mg in 10 ml PEG 200, 37° C.
[21] = 400 mg in 10 ml PEG 400, 37° C.

## CCc1cc2cc(OC)c(OC)cc2c(Cc2ccccc2)n1.Cl [moxaverin hydrochloride]
[1]
  Solubility: Dissolved
  maximum brought into solution in EtOH: ≤ 200 mg/mL
[1]; 10 mg/ml in ethanol 90%
  pH: 3.49
[1]; 20 mg/ml in ethanol 90%
  pH: 3.36
[1]; 30 mg/ml in ethanol 90%
  pH: 3.30
[1]; 40 mg/ml in ethanol 90%
  pH: 3.19
[1]; 50 mg/ml in ethanol 90%
  pH: 3.13
[1]; 60 mg/ml in ethanol 90%
  pH: 3.11
[1]; 100 mg/ml in ethanol 90%
  pH: 3.00
[1]; 200 mg/ml in ethanol 90%
  pH: 2.96
[2]
  maximum brought into solution in H2O: < 1 mg/mL
[3]; PEG 200, pH 7.4
  concentration at which moxaverin HCl precipitated after neutralization: ≥ 35000 µg/mL
[3]; undiluted PEG 400, 37° C.
  moxaverin concentration achieved in undiluted polyethylene glycol 400: up to 40 mg/ml
[4]; aqueous solutions having a physiological pH
  maximum concentration of moxaverin HCl in aqueous solution: ≤ 1 mg/mL
[5]
  directly dissolving the pure substance in diluted PEG: not possible
[6]
  activity of the dissolved moxaverin HCl: active

## CCc1cc2cc(OC)c(OC)cc2c(Cc2ccccc2)n1 [moxaverin, 1-benzyl-3-ethyl-6,7-dimethoxyisoquinoline]
[7]; intracavernous injection
  pain in connection with the injection: No pain was observed
  side effects such as priapism: not observed
[7]; intracavernous, 1 to 10 mg moxaverin hydrochloride in 1 ml, 20 patients
  cases with sufficiently strong penile erection: more than 90%
[7]; scale from 0 to 5, intracavernous injection
  degree of erection E: 4-5
Smooth muscle cells
  effectiveness as musculotropic spasmolytic relative to parent substance papaverin: 2.5 ×
[8]
  time the solutions remained stable without precipitation: more than six months
[9]
  toxicity relative to papaverin: ten times less toxic
[3]; [10]
  Solubility at pH 7.4: Yes
  pH: 3.05
[3]; [11]
  Solubility at pH 7.4: Yes
  pH: 2.53
[3]; [12]
  Solubility at pH 7.4: Yes
  pH: 3.06
[3]; [13]
  Solubility at pH 7.4: Yes
  pH: 2.33
[3]; [14]
  Solubility at pH 7.4: Yes
  pH: 2.97
[3]; [15]
  Solubility at pH 7.4: Yes
  pH: 2.27
[3]; [16]
  Solubility at pH 7.4: Yes
  pH: 2.95
[3]; [17]
  Solubility at pH 7.4: Yes
  pH: 2.30
[3]; [18]
  Solubility at pH 7.4: No
  pH: 2.87
[3]; [19]
  Solubility at pH 7.4: Yes
  pH: 2.22
[3]; [20]
  Solubility at pH 7.4: No
  pH: 2.75
[3]; [21]
  Solubility at pH 7.4: Yes
  pH: 2.12
[3]; PEG 400, high concentrations, pH 7.4
  solution behaviour after pH neutralization: remained in solution
[3]; PEG as solubilizer, upper limit 30% PEG
  maximum moxaverin concentration in the finished aqueous medicinal solution: approximately 12 mg/ml
[3]; dissolved in PEG, diluted as desired
  behaviour on dilution with 1×Tyrode's solution: without the dissolved moxaverin precipitating
[3]; low PEG concentrations of 5% and less
  precipitation on dilution of pH-neutral solutions: did not precipitate
[3]; undiluted polyethylene glycol (PEG), 37 °C, organic solvent or mixture, thermodynamic from solid, undiluted PEG, read-out: maximum solubility in undiluted PEG
  Solubility: ~40 mg/mL (≈ 130 mM)
[4]; free base, water
  solubility in water: < 1 mg/mL
